This assay deals with Serine/threonine-protein kinase pim-1 (Homo sapiens, UniProt P11309). In words: A fluorescent-labeled Pim-specific peptide substrate, was custom synthesized by American Peptide Company (Sunnyvale, Calif.). Reaction Buffer contained 10 mM HEPES, pH 7.2, 10 mM MgCl2, 0.01% Tween 20, 2 mM DTT.

For seven compounds, Ki results are on record in ChEMBL document CHEMBL3886525, “Pyrazolo[3,4-c]pyridine compounds and methods of use” (2016).

pKi: −log10 of the molar value.

Chain of Serine/threonine-protein kinase pim-1 (P11309 whole entry): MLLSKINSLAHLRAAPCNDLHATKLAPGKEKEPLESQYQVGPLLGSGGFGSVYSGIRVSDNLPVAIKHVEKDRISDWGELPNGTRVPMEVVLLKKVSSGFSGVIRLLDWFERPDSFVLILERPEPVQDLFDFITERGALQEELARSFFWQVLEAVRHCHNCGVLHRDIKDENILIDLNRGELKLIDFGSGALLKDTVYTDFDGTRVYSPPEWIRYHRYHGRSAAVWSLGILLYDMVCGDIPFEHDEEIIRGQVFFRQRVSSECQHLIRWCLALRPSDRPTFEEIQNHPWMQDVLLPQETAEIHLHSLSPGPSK

Regarding `c1ccc(-c2n[nH]c3cnc(-c4cccnc4)cc23)cc1`, the pKi – broadly, the Ki on a negative log10 scale, so that one unit is a factor of ten – is 8.02.
For `CCn1cc(-c2cc3c(-c4ccc(=O)n(CC5(C(N)=O)CC5)c4)n[nH]c3cn2)cn1`, the negative logarithm of the Ki (pKi) is 8.85.
Next, `Fc1ccccc1-c1n[nH]c2cnc(-c3cccnc3)cc12`: 6.91; `N[C@@H]1CCN(c2nc(-c3n[nH]c4cnc(-c5cccnc5)cc34)ccc2Br)C1`: 9.93; `Cc1n[nH]c2cnc(-c3cccc(F)c3)cc12`: 5.66.
The result for `c1cncc(-c2cc3c(-c4cccc(N5CCCCC5)n4)n[nH]c3cn2)c1` reads 9.38; that for `c1cncc(-c2cc3c(-c4cccc(N5CCOCC5)n4)n[nH]c3cn2)c1`, 9.58.
